Source: patent publication US20070104780A1, “Formulation comprising a drug of low water solubility and method of use thereof” (priority 2005, published 2007)
In brackets after ≈: the same amount, converted by molar mass.

Legend:
Type in all cases: physicochemical
[1] = Aqueous solubility of the drugs
Text: It will be recognized that aqueous solubility of many drugs is pH dependent; in the case of such drugs the solubility of interest herein is at a physiologically relevant pH, for example a pH of about 1 to about 8.

[2] = Solubility of ABT-102 in various carriers (Example 14); conditions: thermodynamic from solid, room temperature, read-out: Solubility (S)
Experimental: An accurately weighed quantity of about 1 g of each excipient was weighed into three glass vials. Semisolid excipients were warmed in a water bath at around 50-60° C. until completely melted before weighing. An accurately weighed quantity of ABT-102 of about 25 mg, 50 mg and 100 mg was weighed into each of the three vials containing the same excipients. The vials were closed tightly and mixed for around 30 seconds by vortexing and then sonicating in a warm water bath. The vials were visually observed for dissolution after 5-6 hours. Solubility is reported in Table 11 below based on volume of carrier providing a clear solution and volume of carrier where solid was present. All solubility values were determined at room temperature.

[3] = Screening of carriers for solubility of ABT-869 (Example 1); conditions: thermodynamic from solid, room temperature, read-out: Solubility (S)
Experimental: Approximately 20 mg of ABT-869 was weighed and added to a 0.3 ml vial. A test carrier (100 μl) was then added by pipette to the vial. The vial was three times alternately vortexed for about 30 seconds and sonicated for about 1 minute to ensure adequate wetting and dispersion of the ABT-869. The vial was wrapped in aluminum foil, placed in a Labquake™ rotator and rotated for a minimum of 24 hours. […] If solid was still present, carrier was added until all solid had dissolved and the resulting solution was clear. Approximate solubility is reported in Table 1 below as a range based on volume of carrier providing a clear solution and volume of carrier where solid was present. All solubility values were determined at room temperature.

[4] = Solubility of ABT-869 in carriers comprising Phosal 53 MCT (Example 2, HPLC); conditions: 25° C.
Experimental: Solubility of ABT-869 was measured in various carriers comprising Phosal 53 MCT™. Approximately 100-400 mg of ABT-869 was weighed and added to a 4 ml glass vial, to which 2 ml of a test carrier was added. The vial was then vortexed and sonicated for 10 minutes. The vials were wrapped with aluminum foil, placed in a water bath at 25° C. and agitated for 2 days. The contents of the vials were then filtered and the filtrate diluted 25× with mobile phase for HPLC analysis.

[5] = Solubility of isotretinoin in Phosal 53 MCT and typical solvents (Example 11)
[6] = Solubility of paricalcitol in various carriers (Example 13)

CC(C)(C)c1ccc2c(c1)CC[C@H]2NC(=O)Nc1cccc2[nH]ncc12 [ABT-102]
solubility ([1]; water, pH 1.1, simulated gastric fluid, read-out: solubility in water): ~0.102 µg/mL (≈ 0.000293 mM) | solubility ([1]; water, pH 6.8, aqueous buffer, read-out: solubility in water): ~0.0573 µg/mL (≈ 0.000164 mM) | solubility ([2]; oil or lipid, carrier Gelucire 44/14): 25 to 50 mg/mL (≈ 71.7 to 143 mM) | solubility ([2]; oil or lipid, carrier Phosal 50 PG): 50 to 100 mg/mL (≈ 143 to 287 mM) | solubility ([2]; oil or lipid, carrier Phosal 53 MCT): 50 to 100 mg/mL (≈ 143 to 287 mM) | solubility ([2]; oil or lipid, carrier Vit.E TPGS): < 200 mg/mL | solubility ([2]; organic solvent or mixture, carrier PEG 400): 71 mg/mL (≈ 204 mM) | solubility ([2]; organic solvent or mixture, carrier VP Dimer (VPD)): 160 mg/mL (≈ 459 mM)

Cc1ccc(F)c(NC(=O)Nc2ccc(-c3cccc4[nH]nc(N)c34)cc2)c1 [ABT-869, N-[4-(3-amino-1H-indazol-4-yl)phenyl]-N′-(2-fluoro-5-methylphenyl)urea]
solubility ([1]; pH 1, simulated gastric fluid): ~1.7 µg/mL (≈ 0.00453 mM) | solubility ([1]; pH 5, aqueous buffer): ~0.027 µg/mL (≈ 7.19e-05 mM) | solubility ([3]; oil or lipid, carrier 10% ethanol, 90% Phosal 50 PG): 50 to 67 mg/mL (≈ 133 to 178 mM) | solubility ([3]; oil or lipid, carrier 10% ethanol, 90% Phosal 53 MCT): 67 to 100 mg/mL (≈ 178 to 266 mM) | solubility ([3]; oil or lipid, carrier 100% Captex 355 EP): < 50 mg/mL | solubility ([3]; organic solvent or mixture, carrier 10% ethanol, 20% polysorbate 80, 70% PEG 400): > 200 mg/mL | solubility ([3]; organic solvent or mixture, carrier 10% ethanol, 30% Phosal 50 PG, 60% PEG 400): > 200 mg/mL | solubility ([3]; organic solvent or mixture, carrier 10% ethanol, 90% PEG 400): > 200 mg/mL | solubility ([3]; organic solvent or mixture, carrier 100% PEG 400): > 200 mg/mL | solubility ([4]; carrier 5% ethanol, 95% Phosal 53 MCT): 115 mg/g | solubility ([4]; carrier 10% PEG 400, 0.5% Tween 80, 4.5% ethanol, 85% Phosal 53 MCT): >122 mg/g | solubility ([4]; carrier 10% PEG 400, 5% ethanol, 85% Phosal 53 MCT): >123 mg/g | solubility ([4]; carrier 10% PEG 400, 90% Phosal 53 MCT): 139 mg/g | solubility ([4]; carrier 10% ethanol, 90% Phosal 53 MCT): 97 mg/g | solubility ([4]; carrier 20% PEG 400, 80% Phosal 53 MCT): 166 mg/g | solubility ([4]; carrier 30% PEG 400, 70% Phosal 53 MCT): 185 mg/g | solubility ([4]; carrier 40% PEG 400, 60% Phosal 53 MCT): 199 mg/g | solubility ([4]; carrier 50% PEG 400, 50% Phosal 53 MCT): 221 mg/g | solubility ([4]; carrier 100% Phosal 53 MCT): 95 mg/g

CC1=C(/C=C/C(C)=C/C=C/C(C)=C\C(=O)O)C(C)(C)CCC1 [Isotretinoin]
solubility [1]: ~5 µg/mL (≈ 0.0166 mM) | solubility limit ([5]; in Phosal 53 MCT at 25° C.): 72 to 78 mg/g | solubility ([5]; in caprylic/capric triglycerides): 5.1 mg/g | solubility ([5]; in ethanol): 16.7 mg/g | solubility ([5]; in oleic acid): 19.1 mg/g | solubility ([5]; in soybean oil): 2.4 mg/g

C[C@H](/C=C/[C@H](C)C(C)(C)O)[C@H]1CC[C@H]2/C(=C/C=C3C[C@@H](O)C[C@H](O)C3)CCC[C@]12C [paricalcitol]
solubility ([1]; pH 7.4, aqueous buffer): 0.0115 µg/mL (≈ 2.76e-05 mM) | Solubility (mean of 2 tests) ([6]; carrier 10% hydroxypropyl-β-cyclodextrin in PEG): 734 µg/g | Solubility (mean of 2 tests) ([6]; carrier Neobee M5 + 0.5% ethanol): 194 µg/g | Solubility (mean of 2 tests) ([6]; carrier PEG 400): 1,085 μg/g | Solubility (mean of 2 tests) ([6]; carrier Phosal 50 SA): 752 µg/g | Solubility (mean of 2 tests) ([6]; carrier Phosal 53 MCT): 1,459 μg/g | Solubility (mean of 2 tests) ([6]; carrier castor oil): 344 µg/g | Solubility (mean of 2 tests) ([6]; carrier glyceryl monooleate): 1,067 μg/g | Solubility (mean of 2 tests) ([6]; carrier medium chain monoglycerides (Capmul MCM)): 5,057 μg/g | Solubility (mean of 2 tests) ([6]; carrier medium chain triglycerides (Neobee M5)): 165 µg/g | Solubility (mean of 2 tests) ([6]; carrier oleic acid): 819 µg/g | Solubility (mean of 2 tests) ([6]; carrier polysorbate 80 (Tween 80)): 1,353 μg/g | Solubility (mean of 2 tests) ([6]; carrier propylene glycol): 5,791 μg/g | Solubility (mean of 2 tests) ([6]; carrier triethyl citrate): 453 µg/g
